In brackets after ≈: the same amount, converted by molar mass.
Conditions: buffer; pH 7.4; 200.0 µM

| solubility kinetic | Compound |
| --- | --- |
| 16.2 µg/mL (≈ 41.3 µM) | O=C(CS(=O)CC(=O)NC12CC3CC(CC(C3)C1)C2)Nc1ccc(F)cc1 (stereo unspecified) |
| 2.1 µg/mL (≈ 7.49 µM) | O=C(NC(=S)NC1CCCCC1)c1ccc(F)cc1 |
| > 59 µg/mL | O=C(O)c1ccccc1-c1ccccc1C(=O)Nc1ccccc1-c1ccccc1 |
| 2 µg/mL (≈ 6.2 µM) | Cc1ccc(OCCNC(=O)c2cc(=O)[nH]c3ccccc23)cc1 |
| > 63.7 µg/mL | CC(C)(C)NS(=O)(=O)c1ccc(NC(=O)CS(=O)(=O)Cc2ccccc2)cc1 |
| > 44 µg/mL | O=S1(=O)CCN(Cc2ccccc2C(F)(F)F)CC1 |
| > 32.6 µg/mL | Cc1[nH]c(=S)c(C#N)c(C)c1CCC#N |
| 10.1 µg/mL (≈ 27.7 µM) | NC(=O)c1ccc(NC(=O)COC(=O)c2cc3ccccc3cc2O)cc1 |
| > 51.7 µg/mL | CC(C(=O)OCC(=O)N1CCCCC1)N1C(=O)c2ccccc2C1=O (stereo unspecified) |
| 1.4 µg/mL (≈ 5.34 µM) | O=C(NC(=S)Nc1ccccc1)c1cccs1 |
| > 35.1 µg/mL | CCc1ccc[n+](-c2nc([O-])sc2C=O)c1 |
| > 51.1 µg/mL | O=C1CN(C(=O)COC(=O)COc2ccccc2)c2ccccc2N1 |
| > 50 µg/mL | CCN(CC(=O)NCc1ccncc1)S(=O)(=O)c1ccccc1 |
| 28.3 µg/mL (≈ 103 µM) | CCC(Oc1ccccc1)C(=O)NC1CCCCCC1 (stereo unspecified) |
| 47.8 µg/mL (≈ 142 µM) | Cc1ccc(S(C)(=O)=O)cc1C(=O)NC(C)C1CC2CCC1C2 (stereo unspecified) |
| > 48.7 µg/mL | O=C(CCl)N1CCN(C(=O)C2COc3ccccc3O2)CC1 (stereo unspecified) |
| 2.2 µg/mL (≈ 6.85 µM) | CC(=O)c1cccc(NC(=O)NCCc2c[nH]c3ccccc23)c1 |
| 44.8 µg/mL (≈ 134 µM) | CCNC(=S)N1CCC(C(=O)c2ccc3c(c2)OCCO3)CC1 |
| 24.8 µg/mL (≈ 84.1 µM) | CC(C)CC(=O)N1CCN(Cc2cccc(Cl)c2)CC1 |
| > 45 µg/mL | Cn1cnnc1SCC(=O)Nc1ncc([N+](=O)[O-])s1 |
| > 27.2 µg/mL | COc1ccc(OCC(N)=O)cc1 |
| 1.1 µg/mL (≈ 3.54 µM) | COc1ccc2[nH]c(C(=O)Nc3ccc4c(c3)OCO4)cc2c1 |
| > 45.8 µg/mL | O=C(c1c[nH]c2ccccc12)N1CCN(c2ccccc2)CC1 |
| > 53.6 µg/mL | Cc1cc(C)n2nc(C(=O)OCC(=O)Nc3ccc(C)c(F)c3)nc2n1 |

| solubility kinetic | Compound |
| --- | --- |
| > 54.6 µg/mL | O=C(CN1C(=O)NC2(CCCCCC2)C1=O)NCc1ccccc1Cl |
| 1 µg/mL (≈ 3.03 µM) | CCSC1=C(C#N)C2(CCCCC2)C2=C(CC(C)(C)CC2=O)N1 |
| < 0.3 µg/mL | COc1cc(Cl)c(C)cc1NC(=O)CN1CCCCCC1 |
| > 46.3 µg/mL | O=C(Nc1cccc(S(=O)(=O)N2CCCCC2)c1)C1CC1 |
| > 44.9 µg/mL | O=C(OCC(=O)C12CC3CC(CC(C3)C1)C2)c1ccccn1 |
| 0.9 µg/mL (≈ 2.61 µM) | Cc1cccc(C(=O)Nc2cccc(C(=O)Nc3cc(C)ccn3)c2)c1 |
| > 51 µg/mL | O=C(O)CC1(CC(=O)Nc2ccccc2Br)CCCC1 |
| 27.6 µg/mL (≈ 148 µM) | CCOC(=O)Cc1cnc(N)s1 |
| 41.5 µg/mL (≈ 117 µM) | CC(=O)Oc1c(C(C)C)cc(N(C(C)=O)c2ccccc2)cc1C(C)C |
| 16.3 µg/mL (≈ 46.7 µM) | Cc1ccc2nsnc2c1NC(=O)c1cncc(Br)c1 |
| > 47.8 µg/mL | CCCN(CC(=O)Nc1ccccc1OC)C(=O)C1CCCC1 |
| 5.6 µg/mL (≈ 17.7 µM) | CCc1c(C)nc(N2CCN(c3ccccc3F)CC2)[nH]c1=O |
| < 0.7 µg/mL | COc1ccc(CNC(=O)c2cc3ccccc3oc2=O)cc1 |
| 32.1 µg/mL (≈ 142 µM) | C/C(=N\O)C(C)(C)Nc1ccc(Cl)cc1 |
| < 0.6 µg/mL | C/C(Cl)=C/Cc1c(C)[nH]c2c(ccc3ccccc32)c1=O |
| > 55.1 µg/mL | COc1cc(S(=O)(=O)n2cnc3ccccc32)ccc1Br |
| < 0.2 µg/mL | CCOC(=O)c1c(N)c2cc([N+](=O)[O-])ccc2n1C |
| > 56.9 µg/mL | O=C(CN1C(=O)NC2(CCOc3ccccc32)C1=O)NCCc1ccccc1 (stereo unspecified) |
| > 41.5 µg/mL | O=C(Nc1ccccc1N1CCOCC1)C1CCCO1 (stereo unspecified) |
| 50.5 µg/mL (≈ 148 µM) | CN1CCN(C(=O)c2cc(=O)c3cc(Cl)cc(Cl)c3o2)CC1 |
| > 40.1 µg/mL | CCc1nc2cccnc2n1-c1ccc(C(=O)O)cc1 |
| > 46 µg/mL | CN(CC(=O)Nc1ccc(F)cc1)C(=O)Cc1ccsc1 |
| 38.3 µg/mL (≈ 133 µM) | CCN(C(=O)/C=C/c1ccc(OC)cc1)C1CCCCC1 |
| 7.3 µg/mL (≈ 18.6 µM) | NC(=O)c1ccc(NC(=O)COC(=O)/C=C/c2ccc(Br)o2)cc1 |

| solubility kinetic | Compound |
| --- | --- |
| > 49.1 µg/mL | Cc1nccn1CC(=O)N/N=C/c1cc(Br)cs1 |
| < 0.3 µg/mL | C=CCc1cccc(CNc2cnc3ccccc3c2)c1O |
| > 53.2 µg/mL | COc1ccc(/C=N/NC(=O)c2cccnc2)cc1CN1CCOCC1 |
| 1.7 µg/mL (≈ 5.9 µM) | O=C(Nc1nc2ccc(F)cc2s1)Oc1ccccc1 |
| > 45.8 µg/mL | Cc1nn(CC(=O)NC2(C#N)CCCCC2)c(C)c1[N+](=O)[O-] |
| 12.9 µg/mL (≈ 48.6 µM) | CSc1ccc(C(=S)N2CCCCCC2)cc1 |
| > 45.8 µg/mL | CCOc1ccc(NC(=O)C(C)Sc2nccn2C)cc1 (stereo unspecified) |
| 31.2 µg/mL (≈ 110 µM) | N#Cc1cccc(C(=O)OCC(=O)NCc2ccco2)c1 |
| > 32.9 µg/mL | Cc1nc(-c2cccs2)ccc1C(=O)O |
| > 59.5 µg/mL | CCN(C(=O)c1ccc(=O)n(C)n1)c1c(N)n(Cc2ccccc2)c(=O)[nH]c1=O |
| > 48.7 µg/mL | O=C(O)/C=C/C(=O)Nc1ccc(S(=O)(=O)N2CCCC2)cc1 |
| > 36.6 µg/mL | C#CCOC(=O)Nc1cnccc1C(F)(F)F |
| 6.3 µg/mL (≈ 17.1 µM) | COc1ccccc1/C=C/C(=O)OCC(=O)NCc1ccc2c(c1)OCO2 |
| > 46.2 µg/mL | CCOC(=O)CN1C(=O)C(=O)N(Cc2ccccc2F)C1=O |
| 1.3 µg/mL (≈ 3.74 µM) | Cc1cc2nc(-c3ccc[nH]c3=O)n(Cc3cccc(F)c3)c2cc1C |
| 42.3 µg/mL (≈ 135 µM) | Cc1cccc(OCC(=O)NCCNC(=O)c2ccncc2)c1 |
| 39.8 µg/mL (≈ 115 µM) | COc1ccc(CCNC(=O)Nc2cccc([N+](=O)[O-])c2)cc1OC |
| > 43.1 µg/mL | CC(CNC(=O)COC(=O)c1ccco1)c1ccccc1 (stereo unspecified) |
| 39 µg/mL (≈ 126 µM) | Fc1ccccc1NC(=S)NCCc1ccc(Cl)cc1 |
| < 0.3 µg/mL | CC(C)C(=O)Nc1ncc(Cc2ccccc2Cl)s1 |
| > 51.1 µg/mL | O=C(NC1CC2CCCC(C1)N2Cc1ccccc1)C1CCCCC1 (stereo unspecified) |
| > 45.2 µg/mL | Cc1nccn1CC(O)COc1ccc(Cl)cc1Cl (stereo unspecified) |
| > 40.6 µg/mL | CCCN1CCN(C(=O)c2c(Cl)cnn2C)CC1 |
| < 0.3 µg/mL | O=[N+]([O-])c1ccc(Cl)cc1N1CCCCC1 |

| solubility kinetic | Compound |
| --- | --- |
| 4.3 µg/mL (≈ 14.7 µM) | Cc1ccnc(NC(=O)CCCc2c[nH]c3ccccc23)c1 |
| > 36.9 µg/mL | Cc1cc(C)c2c(CC(=O)NN(C)C)coc2c1 |
| 48.2 µg/mL (≈ 134 µM) | Cc1cccc(NS(=O)(=O)c2ccc3[nH]c(=O)cc(C(=O)O)c3c2)c1 |
| > 41.8 µg/mL | O=C(Cc1c(F)cccc1Cl)NCc1cccnc1 |
| > 48.4 µg/mL | CC1CCCCC12NC(=O)N(CC(=O)Nc1nccs1)C2=O (stereo unspecified) |
| > 48.2 µg/mL | COc1cc(C(=O)OCC(=O)N2CCCC2)cc2c1OCCO2 |
| 41.1 µg/mL (≈ 134 µM) | CCC(C(=O)OCCOCCN(CC)CC)c1ccccc1 (stereo unspecified) |
| > 50.6 µg/mL | O=C(c1ccc(F)cc1)N(Cc1ccco1)C1CCS(=O)(=O)C1 (stereo unspecified) |
| > 42.8 µg/mL | COc1ccccc1CNC(=O)c1ccc2c(c1)OCO2 |
| > 38.6 µg/mL | CCCCc1nnc(NC(=O)C(=O)OCC)s1 |
| 2.8 µg/mL (≈ 11.5 µM) | O=C(NC1CC1)c1c(O)c2ccccc2[nH]c1=O |
| > 45.4 µg/mL | Fc1ccc(N2CN(Cc3cccnc3)CNC2=S)cc1 |
| 4.7 µg/mL (≈ 20.5 µM) | N#Cc1cnc(Nc2ccc(F)cc2)nc1N |
| 39.3 µg/mL (≈ 123 µM) | CCC1C(=O)NCCN1Cc1nc(-c2ccc(C)s2)oc1C (stereo unspecified) |
| 13.6 µg/mL (≈ 43.1 µM) | Cc1cc(C)c2c(CN3CC(C)OC(C)C3)cc(=O)oc2c1C (stereo unspecified) |
| > 41.4 µg/mL | Cc1ccc2oc(=O)n(CC(=O)N3CCOCC3)c2c1 |
| > 48.7 µg/mL | Cc1cccc(C(=O)N/C(=C\c2ccco2)C(=O)N2CCCC2)c1 |
| < 0.4 µg/mL | Cc1ccc(C)c(NC(=O)Cn2cc(C(=O)C3CC3)c3ccccc32)c1 |
| 13.3 µg/mL (≈ 33.2 µM) | CC(C)c1ccc(NC(=O)COC(=O)[C@@H]2CCCN2C(=O)c2cccs2)cc1 |
| 6.3 µg/mL (≈ 23.1 µM) | Fc1cccc(NC(=S)N2CCc3ccccc32)c1 |
| 40.6 µg/mL (≈ 142 µM) | O=C1CCCCC1Sc1ccc(Cl)cc1[N+](=O)[O-] (stereo unspecified) |
| 35 µg/mL (≈ 89.6 µM) | Cc1ccc(OCCNC(=O)C(C)SCC(=O)Nc2ccc(F)cc2)cc1 (stereo unspecified) |
| 34 µg/mL (≈ 102 µM) | O=C(CCl)Nc1ccc(S(=O)(=O)Nc2nccs2)cc1 |
| > 46 µg/mL | CCOC(=O)N1CCN(C(=O)Cc2ccccc2OC)CC1 |

| solubility kinetic | Compound |
| --- | --- |
| 0.5 µg/mL (≈ 1.84 µM) | Cc1ccc(-c2nc(-c3ccncc3)no2)c(Cl)c1 |
| > 38.2 µg/mL | Cc1ccc(S(=O)(=O)N2CCN(C)CC2)cc1 |
| 1.3 µg/mL (≈ 4.22 µM) | CCOc1ccc(NC(=O)c2cc(=O)[nH]c3ccccc23)cc1 |
| 4.4 µg/mL (≈ 13.7 µM) | Cc1cc2c(SCC(=O)NC3CCCCC3)ncnc2s1 |
| 1.1 µg/mL (≈ 2.78 µM) | O=C(Nc1nc2cc3c(cc2s1)OCO3)c1ccc(N2C(=O)CCC2=O)cc1 |
| > 40.8 µg/mL | O=C(Nc1cccc(C(F)(F)F)c1)c1cncs1 |
| 11.8 µg/mL (≈ 35.5 µM) | N#Cc1ccc(OS(=O)(=O)c2ccc(-c3ccon3)s2)cc1 |
| 48.3 µg/mL (≈ 145 µM) | CS(=O)(=O)Nc1ccc(S(=O)(=O)N2CCCCCC2)cc1 |
| > 39.8 µg/mL | COc1ccc(NC(=S)NC2CCCCC2)cn1 |
| 37.8 µg/mL (≈ 138 µM) | CN(CC12CC3CC(CC(C3)C1)C2)C(=O)c1ccco1 |
| > 52.4 µg/mL | O=C(Cc1cccc2ccccc12)Nc1cc(C(=O)O)cc(C(=O)O)c1 |
| > 46.2 µg/mL | COc1ccc(Cl)cc1NC(=S)NCc1cccnc1 |
| 41.7 µg/mL (≈ 138 µM) | COCC(=O)Nc1ccc2nc3n(c(=O)c2c1)CCCCC3 |
| 0.8 µg/mL (≈ 2.34 µM) | CC(=O)c1ccc(N2CCN(C3CCC(C(C)(C)C)CC3)CC2)cc1 (stereo unspecified) |
| 29.2 µg/mL (≈ 122 µM) | O=C1NC(c2ccc(O)cc2)Nc2ccccc21 (stereo unspecified) |
| 51.7 µg/mL (≈ 147 µM) | CCOc1ccc(S(=O)(=O)N2CCN(C(=O)C3CC3C)CC2)cc1 (stereo unspecified) |
| 43.5 µg/mL (≈ 130 µM) | COCCCNc1nc2nonc2nc1N(C)CC1CCCN1C (stereo unspecified) |
| > 49.2 µg/mL | O=C(Cn1cc(C(F)(F)F)ccc1=O)OCC(=O)c1ccc[nH]1 |
| 39.7 µg/mL (≈ 132 µM) | O=C(NC1CCN(c2ncccn2)CC1)c1ccccc1F |
| > 36.5 µg/mL | Cc1ccnc2nc(NC(=O)c3ccco3)nn12 |
| > 37.4 µg/mL | Cn1ccnc1SCc1cccc([N+](=O)[O-])c1 |

| Compound | solubility kinetic |
| --- | --- |
| CC(C)C/C(=N/O)c1cn(C)c2ccccc12 | 21.5 µg/mL (≈ 93.4 µM) |
| c1ccc2sc(C3CCNCC3)nc2c1 | > 32.7 µg/mL |
| Cc1ccccc1CCNCc1cc2cccc(C)c2[nH]c1=O | > 46 µg/mL |
| COP(=O)(OC)C(NC(C)=O)C(Cl)(Cl)Cl (stereo unspecified) | > 44.8 µg/mL |

Reference: PubChem BioAssay AID1996
